Assay results taken from publication PMC4647837, “Biocompatible fluorescent supramolecular nanofibrous hydrogel for long-term cell tracking and tumor imaging applications” (Scientific Reports, 2015).

Tests used:
living cells = conditions: cited from earlier work
Description: Long-term cell tracking have recently attracted intensive research interest, as it can provide meritorious information on cell therapy and its processes, as well as on studying the mechanism of cancer pathogenesis, invasion and metastasis. Consequently, the application of the fluorescent nanofibrous hydrogel in long-term cell tracking was investigated. The HeLa cancer cells were incubated with the nanofiber suspension for 4 h at 37 °C. Subsequently, the nanofiber-labeled cells were subcultured for designated time intervals, followed by imaging with CLSM.

4T1 tumor-bearing mice [1] = assay: Ex vivo fluorescence imaging of tumor and organs (Maestro system); conditions: intravenous, 0.1 mL of 100 μM, 24 h post-injection; excitation 523 nm
Description: Eight-week-old BALB/c mice were purchase from the Laboratory Animal Center of the Academy of Military Medical Sciences (Beijing, China). To establish tumor-bearing mouse model, a 4T1 cancer cell suspension containing 5 × 10^5 cells (50 μL) was injected subcutaneously into the mice at the right axillae.
4T1 tumor-bearing mice were intravenously administrated with 0.1 mL of fluorescent nanofiber or precursor (100 μM). At 24 h post-injection, the mice were sacrificed, the tissues including liver, kidney, spleen, intestine, heart, lung, stomach, skin, muscle and tumor were excised and imaged using the Maestro system (CRi, Inc., Woburn, USA). Light with a central wavelength of 523 nm was selected as the excitation source. Spectral imaging from 560 to 900 nm with 10 nm steps was carried out with an exposure time of 150 ms.

[2] = Gelation after GSH addition, vial inversion method; format: physicochemical
Description: Therefore, rheological measurement of the hydrogel was carried out.
5.0 mg of Rhodamine-GFFYE-CS-EE and 3 equiv. of Na2CO3 (in order to adjust the pH value of the final solution) were dissolved in 1.0 mL of PBS buffer (pH 7.4), and then 4 equiv. of reduced glutathione (GSH) was added to the solution. After about 20 minutes at room temperature, the self-supporting hydrogel was formed. Moreover, after dilution of the hydrogel with aqueous solution, the fluorescent nanofiber suspension was obtained.

4T1 tumor-bearing mice [3] = assay: Fluorescence imaging in tissue slices (CLSM); format: in vivo, BALB/c mice; conditions: intravenous, 0.1 mL of 100 μM, 0.5 h post-injection; vessels immunostained with PECAM-1
Description: At 0.5 h post administration of 0.1 mL of fluorescent nanofiber and precursor (100 μM), respectively, the mice were sacrificed. Subsequently, the tumor tissues were dissected, fixed in 4% paraformaldehyde for 2 h, incubated in 20% sucrose/PBS overnight and embedded in Optimal Cutting Temperature (OCT) compound (Tissue-Tek). Sections (6 μm) were immunostained with monoclonal antibody against platelet/endothelial cell adhesion molecule 1 (PECAM-1; PharMingen). Alexa Fluor 633-conjugated antirabbit antibody was used as secondary antibody (Molecular Probes). The cell nuclei were stained with DAPI. The tumor slices were imaged by CLSM with excitation wavelength at 405 nm, 543 nm, and 633 nm for DAPI, Rhodamine B, and PECAM-1, respectively. Furthermore, at 24 h post administration of nanofiber and precursor, respectively, the slices of various tissues including tumor, intestine, liver, spleen, kidney, and heart were obtained following the aforementioned experimental procedures. After that, the cell nuclei in the tissue slices were stained with DAPI, which was followed by imaging with CLSM.

HeLa cancer cells = assay: Cellular uptake and imaging by CLSM; format: cell-based, Human; conditions: Rhodamine B concentration 100 μM, 2 h, FBS-free DMEM, excitation 543 nm
Description: The HeLa cancer cells were cultured in confocal imaging chambers (LAB-TEK, Chambered Coverglass System) at 37 °C. After 80% confluence, the medium was removed and the adherent cells were washed twice with 1 × PBS buffer. The nanofiber and precursor in FBS-free DMEM medium at the Rhodamine B concentration of 100 μM were then added to the chamber, respectively. After incubation for 2 h, the cells were washed with 1 × PBS buffer and then imaged with confocal laser scanning microscope (CLSM, Zeiss LSM 410, Jena, Germany). The fluorescent signal from the Rhodamine B was collected upon excitation at 543 nm with a 560 nm longpass barrier filter. The HepG2 cancer cellular imaging was performed following the same experimental procedures.

| Molecule | number of passages over which living cells can be traced (living cells) | ex vivo fluorescence signal in tumor (4T1 tumor-bearing mice [1]) | time of gelation process after addition of GSH ([2]; 37 °C) | time to hydrogel formation after addition of GSH ([2]; room temperature) [h] | red fluorescence in tumor slices (tumor accumulation) (4T1 tumor-bearing mice [3]) | cellular uptake / spatial distribution in cells (HeLa cancer cells) |
| --- | --- | --- | --- | --- | --- | --- |
| CC(=O)Oc1ccc2c(c1)Oc1cc(OC(C)=O)ccc1C21OC(=O)c2cc(CCl)ccc21 [CellTrackerTM Green CMFDA] | no more than 3 passages | – | – | – | – | – |
| Rhodamine-GFFYE-CS-EE [precursor, Rhodamine B-capped self-assembling peptide with cystamine succinate disulfide linker and hydrophilic EE; precursor of the supramolecular hydrogel] | – | far weaker | around 30 min | 2 | negligible red fluorescence | internalized in the cell cytoplasm |
